Data: patent US10899639B2, “Composition and method for inhibiting microbial adhesion on surfaces” (SOLENIS TECHNOLOGIES, L.P., priority 2017, dated 2021)

Test system: Biofilms grown on stainless steel 316 coupons
Assay: biofilm reduction on stainless steel 316 coupons from CDC Biofilm reactor, viable cell plating
Type: cell-based
Details: two hours at 28° C. with shaking
Method: Biofilms were grown on stainless steel 316 coupons in a CDC Biofilm reactor using […] minimal salts growth media for a period of twenty-four hours. […] A control was done with […] media. After the biofilms were grown, each coupon from the rods in the CDC reactor was unscrewed and dropped into a well of the plate. The plate was then incubated for two hours at 28° C. with shaking. Following the incubation, the coupons were removed from the wells and placed into 5 mL of phosphate-buffered saline (PBS) and sonicated for six minutes. Viable cells released into the fluid were then determined by a plating method. The results are recorded as the percent reduction in cell counts relative to the control.

Question: Which results are given for “sodium dodecylbenzene sulfonate [Biosoft D-40]”?
Answer: percent reduction in cell counts relative to the control (LAS 40 ppm actives): 41.83%; percent reduction in cell counts relative to the control (LAS 100 ppm actives): 81.58%
